From paper PMC3598705, “Evaluation of Toxicity and Biodegradability of Cholinium Amino Acids Ionic Liquids” (PLoS ONE, 2013)
≈ marks a conversion by molar mass, not a printed value. Like-named read-outs stand apart in the source and are kept apart here.

Legend:
[1] = molecular target: T1, AChE type VI-S (from the electric eel) (Electrophorus electricus, UniProt O42275); test: AChE inhibition assay (colorimetric, DTNB reduction); type: biochemical; settings: DTNB 0.5 mM, AChE 0.05 U mL^−1, acetylthiocholine iodide 0.5 mM, 37 °C, phosphate buffer pH 8.0; mean ± SD; read-out: EC50±SD (toxicity toward AChE)
T1 construct: purchased Sigma–Aldrich, USA type VI-S (catalogue number not given)
T1 sequence (O42275 24-633): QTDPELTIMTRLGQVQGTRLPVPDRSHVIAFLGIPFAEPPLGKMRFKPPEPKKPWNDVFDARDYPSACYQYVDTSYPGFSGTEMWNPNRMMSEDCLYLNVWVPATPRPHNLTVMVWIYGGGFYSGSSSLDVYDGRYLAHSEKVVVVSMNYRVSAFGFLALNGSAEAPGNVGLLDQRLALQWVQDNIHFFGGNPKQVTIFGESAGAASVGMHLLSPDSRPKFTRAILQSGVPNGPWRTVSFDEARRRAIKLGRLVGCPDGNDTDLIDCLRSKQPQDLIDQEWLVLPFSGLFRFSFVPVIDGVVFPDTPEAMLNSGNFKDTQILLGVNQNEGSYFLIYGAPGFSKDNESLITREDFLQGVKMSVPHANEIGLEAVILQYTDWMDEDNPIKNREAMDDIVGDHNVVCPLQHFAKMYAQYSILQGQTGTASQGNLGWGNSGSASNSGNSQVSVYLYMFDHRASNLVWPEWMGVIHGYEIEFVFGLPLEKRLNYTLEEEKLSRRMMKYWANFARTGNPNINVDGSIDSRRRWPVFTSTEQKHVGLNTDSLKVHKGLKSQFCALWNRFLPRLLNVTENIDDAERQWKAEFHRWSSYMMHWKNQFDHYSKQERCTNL
Protocol: A colorimetric assay based on reduction of DTNB was used to measure AChE inhibition as described previously, [24], in the presence of a phosphate buffer system in order to eliminate the effects of pH changes on enzyme activity. Briefly, IL solutions were prepared with 0.2 M phosphate buffer (pH 8.0) in 96-well microtiter plates. The enzyme (0.2 U mL^−1, plus 0.25 mg mL^−1 bovine serum albumin in the same phosphate buffer), and DTNB (2 mM, plus 0.185 mg mL^−1 NaHCO3 in the same phosphate buffer) were added to each well and kept at 37 °C for 5 min, and then the reaction was initiated by adding acetylthiocholine iodide (2 mM in the same phosphate buffer). In the experimental reactions, the final concentrations of DTNB, acetylthiocholine iodide and AChE were 0.5 mM, 0.5 mM and 0.05 U mL^−1, respectively. Except where stated otherwise, the concentration range used to calculate EC50 of the [Ch][AA] ILs was 0–50 mM. However, for strongly alkaline [Ch][AA] ILs such as [Ch][Lys], the maximum concentration used was 20 mM in order to avoid changes in enzyme activity due to pH changes that would be caused if the IL exceeded the buffering capacity of the phosphate buffer. Acidic amino acid-derived ILs ([Ch][Asp] and [Ch][Glu]) were used up to 80 mM. The control compounds cholinium chloride ([Ch][Cl]), [Bmim][BF4] and acetone were used at concentration ranges of 0–80 mM, 0–50 mM and 10 mM–2.5 M, respectively. Control experiments without enzyme were carried out under otherwise identical conditions. Reduction of DTNB was monitored at 405 nm and at 10 second intervals in a microplate reader (Wallac 1420 VICTOR3, PerkinElmer, Singapore) over a period of 5 min. Enzyme activity was expressed as ΔOD min^−1 obtained via linear regression analysis. All assays were performed at least in triplicate.
All data were analyzed by One-Way analysis of variance using SPSS 11.5 (SPSS Inc., USA). EC50 values are presented as mean ± standard deviation (SD) from at least three repeats, and confidence intervals (α = 0.05) of EC50 are also presented. The One-Way ANOVA was used to judge if the difference between the different ILs groups was significant. When the p value was<0.05, the difference was considered to be significant.

E. coli ATCC 8739 = test: Antimicrobial activity, tube dilution method; type: cell-based, Escherichia coli; settings: four repeated experiments
Protocol: (§1) Antimicrobial activity was measured via the tube dilution method as described previously. Briefly, E. coli, S. aureus, S. enteritidis and L. monocytogenes were cultured in Mueller-Hinton broth for 24 h at 37 °C. A microorganism suspension of 10^6 cfu mL^−1 (cfu, colony forming units) was prepared from each culture. IL solutions (31.3–1500 mM) were prepared with sterilized Mueller-Hinton broth, and then were sterilized by filtration (0.45 µm pore-diameter membrane). The various permutations of microorganism suspension (50 µL) and IL solution (50 µL) were mixed in 96-well microtiter plate. Growth of the microorganisms was determined visually after incubation for 24 h at 37 °C. Controls were conducted under the same conditions: negative controls without microorganisms and positive controls without ILs. The lowest concentration at which there was no visible growth (turbidity) was taken as the minimal inhibitory concentration (MIC). Samples of 20 µL from each well were spread onto Mueller-Hinton agar medium with inactivates (0.3% lecithin, 3% polysorbate 80 and 0.1% L-cysteine) and incubated for 48 h at 37 °C. The lowest concentration of the IL that killed 99.9% or more of the test bacterium was taken as the minimum biocidal concentration (MBC).

[2] = system: S. enteritidis ATCC 14128; test: Antimicrobial activity, tube dilution method; type: cell-based, Salmonella enteritidis; settings: four repeated experiments; for MIC: 24 h at 37 °C; for MBC: kills 99.9% or more
Protocol: as §1

[3] = system: L. monocytogenes ATCC 19115; test: Antimicrobial activity, tube dilution method; type: cell-based, Listeria monocytogenes; settings: four repeated experiments
Protocol: as §1

S. aureus ATCC 29213 = test: Antimicrobial activity, tube dilution method; type: cell-based, Staphylococcus aureus; settings: four repeated experiments
Protocol: as §1

Structure (SMILES)	EC50 [1] [mM]	MIC (E. coli ATCC 8739; 24 h at 37 °C) [mM]	MBC (E. coli ATCC 8739; kills 99.9% or more) [mM]	MIC [2] [mM]	MIC ([3]; 24 h at 37 °C) [mM]	MBC ([3]; kills 99.9% or more) [mM]	MIC (S. aureus ATCC 29213; 24 h at 37 °C) [mM]	MBC (S. aureus ATCC 29213; kills 99.9% or more) [mM]	MBC [2] [mM]	MIC (E. coli ATCC 8739; Escherichia coli, ATCC8739, 24 h at 37 °C, read-out: MIC) [mM]	MBC (E. coli ATCC 8739; Escherichia coli, ATCC8739, kills 99.9% or more, read-out: MBC) [mM]	MIC ([2]; Salmonella enterica, read-out: MIC) [mM]	MBC ([2]; Salmonella enterica, read-out: MBC) [mM]	MIC ([3]; Listeria monocytogenes, ATCC19115, 24 h at 37 °C, read-out: MIC) [mM]	MBC ([3]; Listeria monocytogenes, ATCC19115, kills 99.9% or more, read-out: MBC) [mM]	MIC (S. aureus ATCC 29213; Staphylococcus aureus, ATCC29213, 24 h at 37 °C, read-out: MIC) [mM]	MBC (S. aureus ATCC 29213; Staphylococcus aureus, ATCC29213, kills 99.9% or more, read-out: MBC) [mM]
C[N+](C)(C)CCO.NCCCC[C@H](N)C(=O)[O-] [[Ch][Lys]]	3.48 ± 0.13	31.3	46.9	31.3	62.5	93.8	62.5	93.8	–	–	–	–	–	–	–	–	–
C[N+](C)(C)CCO.N=C(N)NCCC[C@H](N)C(=O)[O-] [[Ch][Arg]]	3.67 ± 0.07	46.9	93.8	46.9	93.8	125	93.8	125	62.5	–	–	–	–	–	–	–	–
NCC(=O)O [[Ch][Gly]]	3.83 ± 0.17	–	–	–	–	–	–	–	–	–	–	–	–	–	–	–	–
C[C@@H](O)[C@H](N)C(=O)[O-].C[N+](C)(C)CCO [[Ch][Thr]]	–	31.3	62.5	46.9	93.8	125	125	250	62.5	–	–	–	–	–	–	–	–
C[N+](C)(C)CCO.NC(=O)CC[C@H](N)C(=O)[O-] [[Ch][Gln]]	–	125	188	93.8	188	250	125	188	125	–	–	–	–	–	–	–	–
O=C(O)[C@@H]1CCCN1 [[Ch][Pro]]	3.37 ± 0.16	–	–	–	–	–	–	–	–	–	–	–	–	–	–	–	–
C[C@@H](O)[C@H](N)C(=O)O [[Ch][Thr]]	3.45 ± 0.15	–	–	–	–	–	–	–	–	–	–	–	–	–	–	–	–
C[N+](C)(C)CCO.NC(=O)C[C@H](N)C(=O)[O-] [[Ch][Asn]]	–	93.8	125	93.8	250	250	188	250	125	–	–	–	–	–	–	–	–
C[N+](C)(C)CCO.N[C@@H](Cc1cnc[nH]1)C(=O)[O-] [[Ch][His]]	–	46.9	62.5	46.9	93.8	125	93.8	125	62.5	–	–	–	–	–	–	–	–
N[C@@H](Cc1cnc[nH]1)C(=O)O [[Ch][His]]	3.63 ± 0.04	–	–	–	–	–	–	–	–	–	–	–	–	–	–	–	–
C[N+](C)(C)CCO.N[C@@H](Cc1c[nH]c2ccccc12)C(=O)[O-] [[Ch][Trp]]	2.45 ± 0.02	23.4	31.3	23.4	31.3	46.9	46.9	62.5	31.3	–	–	–	–	–	–	–	–
C[N+](C)(C)CCO.N[C@@H](CCC(=O)O)C(=O)[O-] [[Ch][Glu]]	3.72 ± 0.07	500	750	125	500	750	750	750	188	–	–	–	–	–	–	–	–
CSCC[C@H](N)C(=O)[O-].C[N+](C)(C)CCO [[Ch][Met]]	–	31.3	62.5	31.3	125	250	125	250	62.5	–	–	–	–	–	–	–	–
C[N+](C)(C)CCO.NCC(=O)[O-] [[Ch][Gly]]	–	125	250	93.8	250	500	250	500	125	–	–	–	–	–	–	–	–
CC(C)[C@H](N)C(=O)O [[Ch][Val]]	3.06 ± 0.12	46.9 (≈ 5490 µg/mL)	62.5 (≈ 7320 µg/mL)	46.9 (≈ 5490 µg/mL)	93.8 (≈ 11000 µg/mL)	125 (≈ 14600 µg/mL)	93.8 (≈ 11000 µg/mL)	125 (≈ 14600 µg/mL)	62.5 (≈ 7320 µg/mL)	–	–	–	–	–	–	–	–
N[C@@H](CO)C(=O)O [[Ch][Ser]]	3.56 ± 0.15	–	–	–	–	–	–	–	–	–	–	–	–	–	–	–	–
NC(=O)CC[C@H](N)C(=O)O [[Ch][Gln]]	3.51 ± 0.16	–	–	–	–	–	–	–	–	–	–	–	–	–	–	–	–
CC(=O)[O-].C[N+](C)(C)CCO [[Ch][AcO], Cholinium acetate, reference compound]	–	500	750	750	500	750	500	750	750	–	–	–	–	–	–	–	–
C[C@H](N)C(=O)[O-].C[N+](C)(C)CCO [[Ch][Ala]]	–	46.9	93.8	62.5	188	250	188	250	93.8	–	–	–	–	–	–	–	–
CC(C)C[C@H](N)C(=O)[O-].C[N+](C)(C)CCO [[Ch][Leu]]	3.36 ± 0.05	46.9	62.5	46.9	46.9	62.5	93.8	125	62.5	–	–	–	–	–	–	–	–
C[N+](C)(C)CCO.N[C@@H](Cc1ccccc1)C(=O)[O-] [[Ch][Phe]]	2.74 ± 0.1	31.3	46.9	31.3	46.9	62.5	62.5	93.8	46.9	–	–	–	–	–	–	–	–
CCCCn1cc[n+](C)c1 [[Bmim][BF4], 1-Butyl-3-methylimidazolium tetrafluoroborate, reference compound]	0.33 ± 0.01	–	–	–	–	–	–	–	–	2.3	4.6	2.3	2.3	2.3	4.6	2.3	4.6
CCC(C)C(N)C(=O)[O-].C[N+](C)(C)CCO (stereo not shown) [[Ch][Ile]]	3.57 ± 0.07	46.9	62.5	46.9	46.9	62.5	93.8	125	62.5	–	–	–	–	–	–	–	–
C[N+](C)(C)CCO.O=C([O-])[C@@H]1CCCN1 [[Ch][Pro]]	–	46.9	62.5	46.9	62.5	93.8	93.8	125	62.5	–	–	–	–	–	–	–	–
C[N+](C)(C)CCO.N[C@@H](CO)C(=O)[O-] [[Ch][Ser]]	–	31.3	62.5	46.9	93.8	125	125	250	62.5	–	–	–	–	–	–	–	–
NC(=O)C[C@H](N)C(=O)O [[Ch][Asn]]	3.94 ± 0.05	–	–	–	–	–	–	–	–	–	–	–	–	–	–	–	–
CSCC[C@H](N)C(=O)O [[Ch][Met]]	3.13 ± 0.14	–	–	–	–	–	–	–	–	–	–	–	–	–	–	–	–
C[C@H](N)C(=O)O [[Ch][Ala]]	3.33 ± 0.1	–	–	–	–	–	–	–	–	–	–	–	–	–	–	–	–
